In US9586993B2, “CD44v6-derived peptides for treating pancreatic cancer” (AMCURE GMBH, priority 2012, dated 2017):
Entries after “also recorded” stand apart in the source; their conditions may differ.

Experiments:
[1] = test system: L3.6p1 pancreatic carcinoma cells; test: Human orthotopic model, L3.6p1 cells in the pancreas of nude mice; type: in vivo, mouse; settings: for outgrowth / size of the primary tumor: 20 μg per injection i.p. three times per week for three weeks
Procedure: In the case of the human orthotopic model, L3.6p1 pancreatic carcinoma cells (passage 24-26) were suspended in Hank's balanced salt solution (Invitrogen, Karlsruhe, Germany) after trypsinization. The cells were injected orthotopically in the pancreas of male nude mice as described (Bruns C J et al. (1999) Neoplasia 1(1):50-62). Two groups of 15 mice each were injected i.p. 7 days later with either the human v6 peptide respectively rat control peptide (20 μg). For all experiments described and depicted herein either the rat 14mer control peptide or the human 14mer peptide were used. All experiments were then repeated with the rat 5mer control peptide or the human 5mer peptide (N-R-W-H-E, SEQ ID NO: 2). […] The injection was repeated three times per week for 21 days. Two days after the last treatment the animals were killed.
7 μm thick paraffin sections were deparaffinized and rehydrated. For P-Met staining antigen unmasking was achieved by boiling the slides in 1 mM EDTA pH 8.0 followed by incubation for 15 minutes at a sub-boiling temperature, for CD31 staining the sections were treated with Proteinase K (8 μg/ml) for 10 min at 37° C. For immunofluorescence staining of P-Met, unspecific binding was blocked with 5% goat serum (DAKO, Glostrup, Denmark) (diluted in 1×PBS/0.3% Triton X-100) for 60 minutes. In the case of immunohistochemistry, endogenous peroxidases were at first blocked with 3% H2O2 in PBS followed by incubation with biotin blocking system (Dako, Glostrup, Denmark) and then unspecific binding was inhibited by incubation with 5% FCS in PBS. The sections were incubated with the P-Met antibody (D26, dilution 1:50 in 1×PBS/1% BSA/0.3% Triton X-100), Met antibody (C-28, dilution 1:50), GFP antibody (sc-101525, dilution 1:50) or antibody (5 μg/ml) over night or VFF18 (5 μg/ml) o/n at 4° C. After washing in PBS the sections were incubated with Alexa Fluor R 546 goat anti-rabbit (in case of immunofluorescence P-Met and Met staining, dilution 1:500) or a biotinylated secondary antibody (for immunohistochemical stainings rabbit anti-rat antibody for VFF18 and CD31, goat anti-rabbit for P-Met, cleaved Caspase-3 and cleaved Caspase-8 and rabbit anti-mouse for GFP, dilution 1:500) for 45 minutes. For DAB (3,3′-diaminobenzidine) staining the sections were treated with a streptavidin-peroxidase conjugate (Dako, Glostrup, Denmark) and developed with DAB substrate system (3,3′-diaminobenzidine; Biozol, Eching, Germany) For immunofluorescence DAPI was used for nuclear staining.
The three CD44v6 specific compounds (v6 5mer, PEG840-v6 5mer and PEG2000-v6 5mer of human origin) and a control peptide were applied in three concentrations (2 μg, 20 μg, 200 μg per injection) three times per week i.p. for 4 weeks. One week before start of the treatment the L3.6p1 tumor cells were orthotopically implanted into nude mice.
Animals were implanted orthotopically with L3.6p1 cells. Tumor growth was allowed for one week before the treatment with the linear v6 14mer, the cyclic v6 8mer as well as the control peptide (rat v6 14mer) was started. All peptides were injected three times per week at a concentration of 0.2, 2 and 10 μg per injection for 3 weeks. At the end of the treatment animals were sacrificed.
A comparison of different CD44v6 peptide derivatives was performed in animals bearing a orthotopic L3.6p1 tumor. 10 groups of 5 animals each received a dose of 20 μg peptide per injection three times per week for 3 weeks with the compounds listed in Table 4. Three weeks after starting the treatment the animals were sacrificed and analyzed for macroscopic metastases and tumor volume.

VEGF = test: Human VEGF in cell culture supernatant of L3.6p1 cells (Quantikine immunoassay); type: cell-based; settings: 200 ng/ml peptide in the culture medium, 5 days
Procedure: Determination of human HGF and VEGF levels in cell culture medium of L3.6p1 cells were performed using the Quantikine Human HGF Immunoassay and Quantikine Human VEGF Immunoassay from […]. For this purpose 3×10^6 cells were cultured for 5 days in a 15 cm plate in the presence of the respective peptides as indicated. The supernatant (20 ml) was centrifuged (1200 rpm) and the assay was performed according to manufacturer's instructions.

[2] = test system: c-Met and Erk phosphorylation; test: HGF-induced c-Met and Erk phosphorylation in HT29 cells (western blot); type: cell-based, human
Procedure: FIG. 12: A: Activation of Met and signal transduction induced by HGF depends on CD44v6 in L3.6p1 cells. L3.6p1 cells were treated with the human v6 peptide (human v6 14mer) or the rat v6 peptide as control prior to induction with 10 ng/ml HGF. Activation of Met and ERK was determined in western blot. The numbers refer to the fold induction. The experiment was repeated at least 5 times. B: Activation of c-Met and signal transduction induced by HGF depends on CD44v6 HeLa cells. Starved HeLa cells respectively HT29 cells were incubated with the v6 peptide (human v6 14mer) or a control peptide for 10 minutes at 37° C. and then induced with 25 ng/ml of HGF for the indicated time points. Cells were then either lysed and the lysates were subjected to Western Blot analysis for phospho-Met and Met. C: Activation of c-Met and signal transduction induced by HGF depends on CD44v6 in HT29 cells. HGF-induced c-Met and Erk phosphorylation in HT29 was determined as described above using phospho-specific antibodies. […]
The contribution of CD44v6 to Met signaling in the human epithelial pancreatic cancer cells L3.6p1 (derived from Colo 357), the cervix carcinoma cells HeLa and the colon cancer cells HT29 were analysed using the CD44v6 peptide (v6 14mer; v6 5mer tested as well, data not shown).

Erk phosphorylation = test: EGF- and TGFα-induced Erk phosphorylation in MCF7 cells; type: cell-based, human
[3] = test system: L3.6p1 pancreatic carcinoma cells; test: Human orthotopic model, L3.6p1 cells in the pancreas of nude mice; type: in vivo, mouse; settings: dose reduction experiment, 0.2 to 20 μg per injection three times per week for 3 weeks

KEQWFGNRWHEGYR [human 14mer, human CD44v6 14mer peptide]
metastasis formation (liver) ([1]; 0.2 μg per injection three times per week for 3 weeks): showed liver metastases but the average number of metastases per animal was reduced | metastasis formation (liver) ([1]; 2 μg per injection i.p. three times per week): showed liver metastases but the average number of metastases per animal was reduced | metastasis formation (liver) ([1]; 10 μg per injection three times per week for 3 weeks): complete inhibition of metastatic spreading | tumor angiogenesis (vessel number and vessel size, CD31 staining) ([1]; 20 μg i.p. three times per week): decreased angiogenesis | Met activation in the tumor (immunofluorescence for phospho-Met and Met) ([1]; 20 μg i.p. three times per week for three weeks): completely repressed Met activation | outgrowth / size of the primary tumor ([1]; start one week after implantation, listed as CD44v6 14mer): significant reduction in tumor growth | outgrowth / size of the primary tumor ([1]; start one week after implantation, listed as human v6 peptide): strongly repressed | outgrowth / size of the primary tumor ([1]; start one week after implantation, listed as v6 14mer): strongest reduction of tumor size | metastasis formation (liver) ([1]; 20 μg per injection i.p. three times per week, start one week after implantation): complete inhibition of metastasis | metastasis formation (liver) ([1]; 20 μg per injection i.p. three times per week, start one week after implantation, listed as human-specific peptide): completely inhibited metastasis formation within the liver | hVEGF secretion by L3.6p1 cells (VEGF): can be blocked | inhibition of HGF-induced activation of Met and Erk [2]: able to prevent activation of Met and of its downstream target Erk | Erk phosphorylation upon EGF treatment (Erk phosphorylation): blocking of Erk phosphorylation | Erk phosphorylation upon TGFα induction (Erk phosphorylation): not upon TGFα induction | size / growth of the primary tumor [3]: significant decrease of the size of the primary tumor; also recorded: reduces growth of the primary tumor
